Reference: the supplement of paper PMC10307832

Experiments:
Experiment in all cases: relative viability (nuclei count vs DMSO), 5 days (fraction); higher = more cells survive
[1] = tested on: A-427
In short: (§1)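 Each reported value is a median over duplicate plates. It expresses relative viability: treated-well nuclei count divided by vehicle-well nuclei count. Lung cancer cell lines in 1536-well plates were dosed by pin tool a day after seeding, alone with one drug or with a fixed anchor-drug dose plus five library-drug doses (not always all listed) in √10 steps, and nuclei were counted after 5 days.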

[2] = tested on: CAL-12T
In short: as §1

[3] = tested on: COR-L 105
In short: as §1

[4] = tested on: COR-L23
In short: as §1

[5] = tested on: EPLC-272H
In short: as §1

[6] = tested on: HOP-62
In short: as §1

[7] = tested on: LCLC-103H
In short: as §1

[8] = tested on: LXF-289
In short: as §1

[9] = tested on: NCI-H1395
In short: as §1

[10] = tested on: NCI-H1563
In short: as §1

[11] = tested on: NCI-H1651
In short: as §1

[12] = tested on: NCI-H1975
In short: as §1

[13] = tested on: NCI-H1993
In short: as §1

[14] = tested on: NCI-H2023
In short: as §1

[15] = tested on: NCI-H2085
In short: as §1

[16] = tested on: NCI-H2087
In short: as §1

[17] = tested on: NCI-H2170
In short: as §1

[18] = tested on: NCI-H2342
In short: as §1

[19] = tested on: NCI-H3122
In short: as §1

[20] = tested on: NCI-H596
In short: as §1

[21] = tested on: NCI-H647
In short: as §1

[22] = tested on: NCI-H650
In short: as §1

[23] = tested on: PC-14
In short: as §1

[24] = tested on: RERF-LC-KJ
In short: as §1

[25] = tested on: SK-MES-1
In short: as §1

SMILES: CCCCCCCCCCCC1=C(O)C(=O)C=C(O)C1=O [Embelin] + N=C(N)NC(=N)NCCc1ccccc1 [Phenformin] (partner 250 µM)
- relative viability ([1]; first compound 0.08 µM): 0.359
- relative viability ([1]; first compound 0.8 µM): 0.411
- relative viability ([1]; first compound 2.53 µM): 0.328
- relative viability ([1]; first compound 8 µM): 0.363
- relative viability ([2]; first compound 0.08 µM): 0.578
- relative viability ([2]; first compound 0.8 µM): 0.687
- relative viability ([2]; first compound 2.53 µM): 0.554
- relative viability ([2]; first compound 8 µM): 0.543
- relative viability ([3]; first compound 0.08 µM): 0.582
- relative viability ([3]; first compound 0.8 µM): 0.595
- relative viability ([3]; first compound 2.53 µM): 0.446
- relative viability ([3]; first compound 8 µM): 0.496
- relative viability ([4]; first compound 0.08 µM): 0.448
- relative viability ([4]; first compound 0.8 µM): 0.542
- relative viability ([4]; first compound 2.53 µM): 0.426
- relative viability ([4]; first compound 8 µM): 0.462
- relative viability ([5]; first compound 0.08 µM): 0.307
- relative viability ([5]; first compound 0.8 µM): 0.288
- relative viability ([5]; first compound 2.53 µM): 0.288
- relative viability ([5]; first compound 8 µM): 0.288
- relative viability ([6]; first compound 0.08 µM): 0.649
- relative viability ([6]; first compound 0.8 µM): 0.701
- relative viability ([6]; first compound 2.53 µM): 0.777
- relative viability ([6]; first compound 8 µM): 0.719
- relative viability ([7]; first compound 0.08 µM): 0.337
- relative viability ([7]; first compound 0.8 µM): 0.343
- relative viability ([7]; first compound 2.53 µM): 0.367
- relative viability ([7]; first compound 8 µM): 0.286
- relative viability ([8]; first compound 0.08 µM): 0.509
- relative viability ([8]; first compound 0.8 µM): 0.547
- relative viability ([8]; first compound 2.53 µM): 0.527
- relative viability ([8]; first compound 8 µM): 0.571
- relative viability ([9]; first compound 0.08 µM): 0.46
- relative viability ([9]; first compound 0.8 µM): 0.495
- relative viability ([9]; first compound 2.53 µM): 0.474
- relative viability ([9]; first compound 8 µM): 0.395
- relative viability ([10]; first compound 0.08 µM): 0.711
- relative viability ([10]; first compound 0.8 µM): 0.728
- relative viability ([10]; first compound 2.53 µM): 0.626
- relative viability ([10]; first compound 8 µM): 0.578
- relative viability ([11]; first compound 0.08 µM): 0.346
- relative viability ([11]; first compound 0.8 µM): 0.412
- relative viability ([11]; first compound 2.53 µM): 0.361
- relative viability ([11]; first compound 8 µM): 0.321
- relative viability ([12]; first compound 0.08 µM): 0.445
- relative viability ([12]; first compound 0.8 µM): 0.413
- relative viability ([12]; first compound 2.53 µM): 0.405
- relative viability ([12]; first compound 8 µM): 0.384
- relative viability ([13]; first compound 0.08 µM): 0.499
- relative viability ([13]; first compound 0.8 µM): 0.542
- relative viability ([13]; first compound 2.53 µM): 0.489
- relative viability ([13]; first compound 8 µM): 0.467
- relative viability ([14]; first compound 0.08 µM): 0.383
- relative viability ([14]; first compound 0.8 µM): 0.469
- relative viability ([14]; first compound 2.53 µM): 0.418
- relative viability ([14]; first compound 8 µM): 0.327
- relative viability ([15]; first compound 0.08 µM): 0.708
- relative viability ([15]; first compound 0.8 µM): 0.884
- relative viability ([15]; first compound 2.53 µM): 0.73
- relative viability ([15]; first compound 8 µM): 0.664
- relative viability ([16]; first compound 0.08 µM): 0.486
- relative viability ([16]; first compound 0.8 µM): 0.459
- relative viability ([16]; first compound 2.53 µM): 0.426
- relative viability ([16]; first compound 8 µM): 0.479
- relative viability ([17]; first compound 0.08 µM): 0.438
- relative viability ([17]; first compound 0.8 µM): 0.489
- relative viability ([17]; first compound 2.53 µM): 0.427
- relative viability ([17]; first compound 8 µM): 0.444
- relative viability ([18]; first compound 0.08 µM): 0.594
- relative viability ([18]; first compound 0.8 µM): 0.551
- relative viability ([18]; first compound 2.53 µM): 0.701
- relative viability ([18]; first compound 8 µM): 0.516
- relative viability ([19]; first compound 0.08 µM): 0.388
- relative viability ([19]; first compound 0.8 µM): 0.415
- relative viability ([19]; first compound 2.53 µM): 0.384
- relative viability ([19]; first compound 8 µM): 0.282
- relative viability ([20]; first compound 0.08 µM): 0.743
- relative viability ([20]; first compound 0.8 µM): 0.744
- relative viability ([20]; first compound 2.53 µM): 1.03
- relative viability ([20]; first compound 8 µM): 0.582
- relative viability ([21]; first compound 0.08 µM): 0.632
- relative viability ([21]; first compound 0.8 µM): 0.721
- relative viability ([21]; first compound 2.53 µM): 0.546
- relative viability ([21]; first compound 8 µM): 0.472
- relative viability ([22]; first compound 0.08 µM): 0.436
- relative viability ([22]; first compound 0.8 µM): 0.524
- relative viability ([22]; first compound 2.53 µM): 0.312
- relative viability ([22]; first compound 8 µM): 0.44
- relative viability ([23]; first compound 0.08 µM): 0.604
- relative viability ([23]; first compound 0.8 µM): 0.988
- relative viability ([23]; first compound 2.53 µM): 0.465
- relative viability ([23]; first compound 8 µM): 0.393
- relative viability ([24]; first compound 0.08 µM): 0.431
- relative viability ([24]; first compound 0.8 µM): 0.461
- relative viability ([24]; first compound 2.53 µM): 0.418
- relative viability ([24]; first compound 8 µM): 0.356
- relative viability ([25]; first compound 0.08 µM): 0.67
- relative viability ([25]; first compound 0.8 µM): 0.694
- relative viability ([25]; first compound 2.53 µM): 0.75
- relative viability ([25]; first compound 8 µM): 0.585
